Our source for the EC50 values is US9340478B2, “Cooling agent and TRPM8 activator” (Kao Corporation, priority 2011, dated 2016).

The target of the test is T1, human TRPM8 (Homo sapiens, UniProt Q7Z2W7).
T1 construct: A full-length human TRPM8 gene was amplified from human prostatic tissue total RNA; expressed in transfected cells; host or cells: HEK293
Put plainly: TRPM8 activating action, fluorescent calcium imaging in HEK293 cell line stably expressing human TRPM8. To be noted: HEK293 cells expressing human TRPM8; Fluo4 calcium imaging at 32° C.; 1 nM to 100 μM; Hill's equation fit. The class given is cell-based. The protocol: The EC50 value in connection with the TRPM8 activating action of a test sample was measured according to the following procedure.
(1) Production of Cell Line Stably Expressing Human TRPM8
In order to produce a HEK293 cell line stably expressing human TRPM8, cloning of human TRPM8 gene was carried out. A full-length human TRPM8 gene was amplified from human prostatic tissue total RNA (manufactured by Cosmobio Co., Ltd.) using an RT-PCR method.
The PCR product thus obtained was cloned into an entry vector pENTR-D/TOPO (manufactured by Invitrogen, Inc.), and then was sub-cloned into pCDNA3.2-V5/DEST (manufactured by Invitrogen, Inc.), The vector was transduced into HEK293 cells by means of LIPOFECTAMINE 2000 (manufactured by Invitrogen, Inc.). The transduced cells were proliferated in DMEM medium containing 450 μg/mL of G-418 (Promega Corp.) and screened.
Measurement of the activity of TRPM8 transduced into HEK293 cells was carried out by a fluorescent calcium imaging method.
First, the cultured TRPM8 expressing cells were seeded (30,000 cells/well) in a 96-well plate coated with poly-D-lysine (manufactured by BD Biosciences Co.), the cells were incubated overnight at 37° C., and then the culture fluid was removed. Fluo4-AM liquid (manufactured by Dojindo Molecular Technologies, Inc.; CALCIUM KIT II) was added thereto, and the cells were incubated for 30 to 60 minutes at 37° C. Thereafter, the 96-well plate was mounted on a fluorescence plate reader (FDSS3000; manufactured by Hamamatsu Photonics K.K.), and while the temperature inside the apparatus chamber was maintained at 32° C., a fluorescent image made by Fluo4 when excited at an excitation wavelength of 480 nm, was captured at a detection wavelength of 520 nm using a CCD camera.
Measurement was carried out at every one second for 4 minutes in total. 15 seconds after the initiation of measurement, a test sample (prepared by dissolving each of the compounds indicated in the following Table 1 in ethanol) was added through a dispenser equipped in FDSS3000, and the activity of TRPM8 was evaluated based on the change in fluorescence intensity.
(3) Evaluation of TRPM8 Activation
For the TRPM8 activity, the intrinsic fluorescence was excluded using the following formula, so as to eliminate the influence of intrinsic fluorescence caused by the test sample. Fluorescence intensity excluding intrinsic fluorescence(Fsub)=(Fluorescence intensity of TRPM8 expressing cells at each time point)−{(fluorescence intensity of HEK293 cells at each time point)−(fluorescence intensity of HEK293 cells at the time of measurement initiation)}
Furthermore, the TRPM8 activating action induced by each sample was evaluated using the peak of the fluorescence intensity ratio after the addition of the test sample. The fluorescence intensity ratio was calculated using the following formula. Fluorescence intensity ratio=Fsub at each time point/at the time of measurement initiation
The evaluation was carried out using two wells per each treated group, and the average value was used.
The TRPM8 activating action of each test sample was evaluated at a final concentration in the range of 1 nM to 100 μM, and a dose dependent curve approximating Hill's equation by the least square method was determined.

T1 sequence (Q7Z2W7 whole entry): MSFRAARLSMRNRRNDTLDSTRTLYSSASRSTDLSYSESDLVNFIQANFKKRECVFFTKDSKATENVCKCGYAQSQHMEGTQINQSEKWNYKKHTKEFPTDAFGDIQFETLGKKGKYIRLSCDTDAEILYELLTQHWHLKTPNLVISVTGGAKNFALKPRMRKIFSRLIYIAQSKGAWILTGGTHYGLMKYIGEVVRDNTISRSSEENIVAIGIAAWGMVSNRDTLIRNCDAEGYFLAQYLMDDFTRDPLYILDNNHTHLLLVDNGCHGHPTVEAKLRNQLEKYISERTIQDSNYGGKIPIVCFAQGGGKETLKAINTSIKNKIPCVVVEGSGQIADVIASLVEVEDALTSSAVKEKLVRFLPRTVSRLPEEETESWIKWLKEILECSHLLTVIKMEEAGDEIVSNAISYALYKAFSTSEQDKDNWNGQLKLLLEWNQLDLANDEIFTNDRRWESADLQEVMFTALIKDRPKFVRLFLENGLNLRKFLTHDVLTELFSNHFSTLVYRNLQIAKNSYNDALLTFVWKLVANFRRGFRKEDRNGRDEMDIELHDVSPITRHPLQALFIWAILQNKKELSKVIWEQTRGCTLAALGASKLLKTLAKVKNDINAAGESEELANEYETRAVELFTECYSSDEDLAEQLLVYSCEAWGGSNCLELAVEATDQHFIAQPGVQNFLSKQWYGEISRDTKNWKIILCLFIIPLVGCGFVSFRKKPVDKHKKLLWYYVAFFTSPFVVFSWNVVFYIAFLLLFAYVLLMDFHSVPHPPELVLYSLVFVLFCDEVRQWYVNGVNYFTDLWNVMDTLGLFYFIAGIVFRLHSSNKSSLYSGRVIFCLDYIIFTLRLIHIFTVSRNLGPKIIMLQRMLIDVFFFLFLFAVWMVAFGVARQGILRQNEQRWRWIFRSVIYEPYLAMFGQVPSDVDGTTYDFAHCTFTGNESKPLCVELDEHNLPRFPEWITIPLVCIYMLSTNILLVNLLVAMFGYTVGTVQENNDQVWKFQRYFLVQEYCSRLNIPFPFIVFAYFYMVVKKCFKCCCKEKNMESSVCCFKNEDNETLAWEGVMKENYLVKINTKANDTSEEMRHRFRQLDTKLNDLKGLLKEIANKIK

With `C=CCc1cc(OC)c(OC(C)C(OCCCCCCCC)c2ccc(O)c(OC)c2)c(OC)c1` (centres unmarked) [Mixture (27), Δ8′-7-Octoxy-4-hydroxy-3,3′,5′-trimethoxy-8-O-4′-neolignan], the EC50 is 88 nM.

For `C=CCc1cc(OC)c(O[C@@H](C)[C@H](OC(C)=O)c2ccc(O)c(OC)c2)c(OC)c1` (relative stereo) [Erythro-form (23), erythro-Δ8′-7-acetyl-4-hydroxy-3,3′,5′-trimethoxy-8-O-4′-neolignan], the concentration for a half-maximal effect (EC50) is 2600 nM. Turning to `C=CCc1cc(OC)c(OC(C)C(OC)c2ccc(O)c(OC)c2)c(OC)c1` (mixture of isomers) [Mixture (18), Δ8′-4-hydroxy-3,3′,5′,7-tetramethoxy-8-O-4′-neolignan], the EC50 amounted to 2410 nM. Turning to `C=CCc1cc(OC)c(OC(C)C(OCC)c2ccc(O)c(OC)c2)c(OC)c1` (centres unmarked) [Mixture (15), Δ8′-7-ethoxy-4-hydroxy-3,3′,5′-trimethoxy-8-O-4′-neolignan], the EC50 amounted to 309 nM. Turning to `C=CCc1cc(OC)c(OC(C)C(OCC)c2ccc(O)c(OC)c2)c(OC)c1` (single isomer, unassigned) [Erythro-form (1), erythro-Δ8′-7-ethoxy-4-hydroxy-3,3′,5′-trimethoxy-8-O-4′-neolignan], the EC50 came out at 1570 nM. On to `C=CCc1cc(OC)c(OC(C)C(OCCOCCCC)c2ccc(O)c(OC)c2)c(OC)c1` (centres unmarked) [Mixture (32), Δ8′-7-Oxybutoxyethyl-4-hydroxy-3,3′,5′-trimethoxy-8-O-4′-neolignan], for which the concentration giving a half-maximal response (EC50) was 131 nM. In the case of `C=CCc1cc(OC)c(OC(C)C(OCC(C)C)c2ccc(O)c(OC)c2)c(OC)c1` (centres unmarked) [Mixture (25), Δ8′-7-Isobutoxy-4-hydroxy-3,3′,5′-trimethoxy-8-O-4′-neolignan], the half-maximal effective concentration (EC50) was 113 nM. To `CCOC(c1ccc(O)c(OC)c1)C(C)Oc1ccccc1OC` (centres unmarked) [Mixture (38), 4-[1-ethoxy-2-(2-methoxyphenoxy)propyl]-2-methoxyphenol] belongs 56200 nM; to `C=CCc1cc(OC)c(OC(C)C(OCCCCCC)c2ccc(O)c(OC)c2)c(OC)c1` (centres unmarked) [Mixture (26), Δ8′-7-Hexoxy-4-hydroxy-3,3′,5′-trimethoxy-8-O-4′-neolignan], 218 nM. With `C=CCc1cc(OC)c(O[C@@H](C)[C@@H](OCC)c2ccc(O)c(OC)c2)c(OC)c1` [7S8S-form (2b), (7S,8S)-Δ8′-7-ethoxy-4-hydroxy-3,3′,5′-trimethoxy-8-O-4′-neolignan] the figure was 87 nM; with `C=CCc1ccc(OC(C)Cc2ccc(O)c(OC)c2)c(OC)c1` (centres unmarked) [Mixture (34), Δ8′-4-Hydroxy-3,3′-dimethoxy-8-O-4′-neolignan], 5850 nM; with `C=CCc1cc(OC)c(O[C@@H](C)[C@H](OCCCC)c2ccc(O)c(OC)c2)c(OC)c1` (relative stereo) [Erythro-form (19), Erythro-Δ8′-7-butoxy-4-hydroxy-3,3′,5′-trimethoxy-8-O-4′-neolignan], 581 nM. To `C=CCc1cc(OC)c(OC(C)C(OCC)c2ccc(O)c(OC)c2)c(OC)c1` (single isomer, unassigned) [Threo-form (2), threo-Δ8′-7-ethoxy-4-hydroxy-3,3′,5′-trimethoxy-8-O-4′-neolignan] belongs 199 nM. `C=CCc1cc(OC)c(OC(C)C(OC(C)(C)C)c2ccc(O)c(OC)c2)c(OC)c1` (centres unmarked) [Mixture (31), Δ8′-7-t-Butoxy-4-hydroxy-3,3′,5′-trimethoxy-8-O-4′-neolignan]: the EC50 worked out at 40 nM. For the compound `C=CCc1cc(OC)c(OC(C)C(OC(C)C)c2ccc(O)c(OC)c2)c(OC)c1` (centres unmarked) [Mixture (24), Δ8′-7-isopropoxy-4-hydroxy-3,3′,5′-trimethoxy-8-O-4′-neolignan], the concentration for a half-maximal effect (EC50) worked out at 75 nM. With `C=CCc1cc(OC)c(O[C@H](C)[C@H](OCCCC)c2ccc(O)c(OC)c2)c(OC)c1` (relative stereo) [Threo-form (20), Threo-Δ8′-7-butoxy-4-hydroxy-3,3′,5′-trimethoxy-8-O-4′-neolignan] the figure was 43 nM; with `C=CCc1cc(OC)c(OC(C)C(OCCCCCCCCCC)c2ccc(O)c(OC)c2)c(OC)c1` (centres unmarked) [Mixture (28), Δ8′-7-Decoxy-4-hydroxy-3,3′,5′-trimethoxy-8-O-4′-neolignan], 61 nM; with `C=CCc1cc(OC)c(O[C@@H](C)[C@H](OCC)c2ccc(O)c(OC)c2)c(OC)c1` [7R8S-form (1a), (7R,8S)-Δ8′-7-ethoxy-4-hydroxy-3,3′,5-trimethoxy-8-O-4′-neolignan], 1230 nM. To `C=CCc1cc(OC)c(OC(C)C(OCc2ccccc2)c2ccc(O)c(OC)c2)c(OC)c1` (centres unmarked) [Mixture (30), Δ8′-7-Benzyloxy-4-hydroxy-3,3′,5′-trimethoxy-8-O-4′-neolignan] belongs 144 nM; to `C/C=C/c1ccc(OC(C)C(OCC)c2ccc(O)c(OC)c2)c(OC)c1` (centres unmarked) [Mixture (36), Δ8′-7-ethoxy-4-hydroxy-3,3′-dimethoxy-1′-propenyl-8-O-4′-neolignan], 12200 nM; to `C=CCc1cc(OC)c(O[C@H](C)[C@@H](OCC)c2ccc(O)c(OC)c2)c(OC)c1` [7S8R-form (1b), (7S,8R)-Δ8′-7-ethoxy-4-hydroxy-3,3′,5′-trimethoxy-8-O-4′-neolignan], 981 nM. On to `C=CCc1cc(OC)c(O[C@H](C)[C@H](OCC)c2ccc(O)c(OC)c2)c(OC)c1` [7R8R-form (2a), (7R,8R)-Δ8′-7-ethoxy-4-hydroxy-3,3′,5′-trimethoxy-8-O-4′-neolignan], for which the EC50 came out at 610 nM. Turning to `C=CCc1cc(OC)c(OC(C)C(OC2CCCCC2)c2ccc(O)c(OC)c2)c(OC)c1` (centres unmarked) [Mixture (29), Δ8′-7-Cyclohexoxy-4-hydroxy-3,3′,5′-trimethoxy-8-O-4′-neolignan], the half-maximal effective concentration (EC50) was found to be 45 nM.
